Laboratory results published in patent publication US20030224416A1, “Schizophrenia related gene” (priority 2002, published 2003).

System: Kv3.1 α-subunit mRNA
Assay: Experiment 1: in situ hybridization of Kv3.1 α-subunit mRNA in brain, chronic PCP rat model of schizophrenia with antipsychotic co-treatment
Format: in vivo

SMILES: CN1CCN(C2=Nc3ccc(F)cc3Nc3sc4ccccc4c32)CC1.O=C(O)/C=C\C(=O)O [Y-931, 8-fluoro-12-(4-methylpiperazin-1-yl)-6H-[l]benzothieno[2,3-b][1,5]benzo-diazepine monomaleate]
- Kv3.1 α-subunit mRNA expression (M2, PCP + drug 1 mg/kg/day): 13.10 ± 0.57 PSL/mm^2
- Kv3.1 α-subunit mRNA expression (M2, PCP + drug 3 mg/kg/day): 14.25 ± 0.81 PSL/mm^2
- Kv3.1 α-subunit mRNA expression (M2, PCP + drug 10 mg/kg/day): 13.04 ± 0.53 PSL/mm^2
- Kv3.1 α-subunit mRNA expression (MG, PCP + drug 0.3 mg/kg/day): 26.82 ± 1.55 PSL/mm^2
- Kv3.1 α-subunit mRNA expression (MG, PCP + drug 1 mg/kg/day): 26.36 ± 0.95 PSL/mm^2
- Kv3.1 α-subunit mRNA expression (MG, PCP + drug 3 mg/kg/day): 26.75 ± 2.02 PSL/mm^2
- Kv3.1 α-subunit mRNA expression (MG, PCP + drug 10 mg/kg/day): 27.36 ± 1.86 PSL/mm^2
- Kv3.1 α-subunit mRNA expression (MM, PCP + drug 0.3 mg/kg/day): 25.02 ± 2.54 PSL/mm^2
- Kv3.1 α-subunit mRNA expression (MM, PCP + drug 1 mg/kg/day): 24.82 ± 0.93 PSL/mm^2
- Kv3.1 α-subunit mRNA expression (MM, PCP + drug 3 mg/kg/day): 20.92 ± 0.93 PSL/mm^2
- Kv3.1 α-subunit mRNA expression (MM, PCP + drug 10 mg/kg/day): 28.12 ± 1.89 PSL/mm^2
- Kv3.1 α-subunit mRNA expression (Pir, PCP + drug 0.3 mg/kg/day): 38.95 ± 2.38 PSL/mm^2
- Kv3.1 α-subunit mRNA expression (Pir, PCP + drug 1 mg/kg/day): 43.16 ± 2.76 PSL/mm^2
- Kv3.1 α-subunit mRNA expression (Pir, PCP + drug 3 mg/kg/day): 38.15 ± 3.31 PSL/mm^2
- Kv3.1 α-subunit mRNA expression (Pir, PCP + drug 10 mg/kg/day): 41.69 ± 1.90 PSL/mm^2
- Kv3.1 α-subunit mRNA expression (PrL, PCP + drug 0.3 mg/kg/day): 12.76 PSL/mm^2
- Kv3.1 α-subunit mRNA expression (PrL, PCP + drug 1 mg/kg/day): 12.17 PSL/mm^2
- Kv3.1 α-subunit mRNA expression (PrL, PCP + drug 3 mg/kg/day): 12.93 PSL/mm^2
- Kv3.1 α-subunit mRNA expression (PrL, PCP + drug 10 mg/kg/day): 12.55 PSL/mm^2
- effect on PCP-induced decrease in Kv3.1 α-subunit mRNA expression (PrL, all doses administered (0.3-10 mg/kg/day)): significantly reversed the PCP-induced decrease back to control levels
- Kv3.1 α-subunit mRNA expression (RSa, PCP + drug 0.3 mg/kg/day): 19.22 ± 1.40 PSL/mm^2
- Kv3.1 α-subunit mRNA expression (RSa, PCP + drug 1 mg/kg/day): 18.90 ± 1.03 PSL/mm^2
- Kv3.1 α-subunit mRNA expression (RSa, PCP + drug 3 mg/kg/day): 17.36 ± 1.55 PSL/mm^2
- Kv3.1 α-subunit mRNA expression (RSa, PCP + drug 10 mg/kg/day): 18.04 ± 0.87 PSL/mm^2
- Kv3.1 α-subunit mRNA expression (RSg, PCP + drug 0.3 mg/kg/day): 20.89 ± 0.95 PSL/mm^2
- Kv3.1 α-subunit mRNA expression (RSg, PCP + drug 1 mg/kg/day): 19.99 ± 0.59 PSL/mm^2
- Kv3.1 α-subunit mRNA expression (RSg, PCP + drug 3 mg/kg/day): 20.73 ± 1.22 PSL/mm^2
- Kv3.1 α-subunit mRNA expression (RSg, PCP + drug 10 mg/kg/day): 19.48 ± 0.64 PSL/mm^2
- Kv3.1 α-subunit mRNA expression (SN, PCP + drug 0.3 mg/kg/day): 11.66 ± 0.91 PSL/mm^2
- Kv3.1 α-subunit mRNA expression (SN, PCP + drug 1 mg/kg/day): 12.98 ± 1.12 PSL/mm^2
- Kv3.1 α-subunit mRNA expression (SN, PCP + drug 3 mg/kg/day): 13.04 ± 1.29 PSL/mm^2
- Kv3.1 α-subunit mRNA expression (SN, PCP + drug 10 mg/kg/day): 15.34 ± 1.58 PSL/mm^2
- Kv3.1 α-subunit mRNA expression (VMStr, PCP + drug 0.3 mg/kg/day): 6.75 ± 0.50 PSL/mm^2
- Kv3.1 α-subunit mRNA expression (VMStr, PCP + drug 1 mg/kg/day): 7.18 ± 0.71 PSL/mm^2
- Kv3.1 α-subunit mRNA expression (VMStr, PCP + drug 3 mg/kg/day): 7.69 ± 0.35 PSL/mm^2
- Kv3.1 α-subunit mRNA expression (VMStr, PCP + drug 10 mg/kg/day): 7.23 ± 0.26 PSL/mm^2
- Kv3.1 α-subunit mRNA expression (VO, PCP + drug 0.3 mg/kg/day): 19.12 ± 0.74 PSL/mm^2
- Kv3.1 α-subunit mRNA expression (VO, PCP + drug 1 mg/kg/day): 17.81 ± 1.08 PSL/mm^2
- Kv3.1 α-subunit mRNA expression (VO, PCP + drug 3 mg/kg/day): 19.32 ± 0.63 PSL/mm^2
- Kv3.1 α-subunit mRNA expression (VO, PCP + drug 10 mg/kg/day): 18.51 ± 1.08 PSL/mm^2
- effect on PCP-induced decreases in Kv3.1 α-subunit mRNA expression (summary) (chronic co-administration with PCP): reversed
- effect on PCP-induced decrease in Kv3.1 α-subunit mRNA expression (dRt and DLStr): neither Y-931 nor olanzapine significantly modulated the PCP-induced effect
- Kv3.1 α-subunit mRNA expression (dRt, PCP + drug 0.3 mg/kg/day): 54.94 ± 1.99 PSL/mm^2
- Kv3.1 α-subunit mRNA expression (dRt, PCP + drug 1 mg/kg/day): 51.68 ± 2.34 PSL/mm^2
- Kv3.1 α-subunit mRNA expression (dRt, PCP + drug 3 mg/kg/day): 53.38 ± 2.99 PSL/mm^2
- Kv3.1 α-subunit mRNA expression (dRt, PCP + drug 10 mg/kg/day): 54.81 ± 1.90 PSL/mm^2
- Kv3.1 α-subunit mRNA expression (vRt, PCP + drug 0.3 mg/kg/day): 46.91 ± 2.73 PSL/mm^2
- Kv3.1 α-subunit mRNA expression (vRt, PCP + drug 1 mg/kg/day): 47.18 ± 2.10 PSL/mm^2
- Kv3.1 α-subunit mRNA expression (vRt, PCP + drug 3 mg/kg/day): 52.57 ± 2.00 PSL/mm^2
- Kv3.1 α-subunit mRNA expression (vRt, PCP + drug 10 mg/kg/day): 49.70 ± 2.76 PSL/mm^2
